Like-named read-outs stand apart in the source and are kept apart here. Blank lines part the entries; values can stand above or below the molecule they belong to.
Columns and labels:
hPAR2 [1] = biological target: T1, hPAR2 (Homo sapiens, UniProt P55085); assay: Ca^2+ flux assay, inhibition of trypsin activation in 1321N1-hPAR2 cells (with 1 µM Vorapaxar); type: cell-based; conditions: for shape of inhibition of trypsin-induced Ca^2+ mobilisation: 1321N1-hPAR2 cells, 1 µM Vorapaxar
T1 sequence (P55085 26-397): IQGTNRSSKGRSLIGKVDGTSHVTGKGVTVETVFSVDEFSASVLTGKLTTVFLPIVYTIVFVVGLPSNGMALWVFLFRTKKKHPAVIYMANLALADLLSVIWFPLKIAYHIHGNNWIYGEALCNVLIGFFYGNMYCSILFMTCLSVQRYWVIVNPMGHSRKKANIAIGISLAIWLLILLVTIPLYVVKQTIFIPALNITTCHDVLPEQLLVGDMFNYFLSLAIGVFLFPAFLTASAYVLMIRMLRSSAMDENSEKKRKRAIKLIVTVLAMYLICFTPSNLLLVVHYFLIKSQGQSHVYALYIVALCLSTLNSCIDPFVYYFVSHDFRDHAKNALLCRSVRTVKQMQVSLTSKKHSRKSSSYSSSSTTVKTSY

hPAR2 [2] = biological target: T1, hPAR2; assay: Europium-tagged competition binding assay against Eu-tagged-2f-LIGRLO(dtpa)-NH2 on CHO-hPAR2 cells; parameters: expressed in transfected cells; host or cells: Flp-In CHO
Protocol: CHO-hPAR2 cells were seeded overnight in 384-well plate at 2.5 × 10^4 cells/well and blocked with 2% BSA for 60 min. […] Cells were washed 3× with PBS supplemented with 20 µM EDTA, 0.01% Tween and 0.2% BSA followed by addition of DELFIA Enhancement Solution (Perkin Elmer) for 90 min. Time-resolved fluorescence was measured with PHERAstar FS reader (BMG Labtech).
(§1) Binding data were analysed using the One site – Fit Ki model in GraphPad Prism 8 (GraphPad Software) to determine binding affinity. Pharmacology in vitro potency data was analysed with a 4-parameter logistic fit using the equation y = Bottom + (Top − Bottom)/[…] where y is the response, x is the 10-logarithm of the drug concentration, Bottom is no response and Top is full response in GraphPad Prism 8 or Genedata Screener (Genedata). pEC50 and pIC50 data are presented as mean ± standard error of the mean (s.e.m.) derived from the number of independent experiments stated. Schild slope analysis was calculated using Graphpad Prism 8 Gaddum/Schild EC50 global fitting (shared model parameters between all data sets) competitive model. […] Schild slope quantifies the shifts in agonist response in the presence of antagonist, a Schild slope of 1 indicates the antagonist is competitive and extra-sum-of-squares F-test (p < 0.05) was used to compare the calculated Schild slope against a hypothetical Schild slope of 1. […] The relative activity was calculated using (EmaxEC50’)/(Emax’EC50) with the Hill slope help constant at 1. EC50’ and Emax’ denote the EC50 and Emax in the absence of allosteric modulator, while EC50 and Emax denote those measured in the presence of allosteric modulator. When the Hill slope = 1, the relative activity plot approaches an asymptote corresponding to the estimate of the γ value.

hPAR2 [3] = biological target: T1, hPAR2; assay: pERK1/2 HTRF assay, inhibition of SLIGRL-NH2 in U2OS-hPAR2 cells; type: cell-based
Protocol: Phosphorylation of ERK1/2 was measured in U2OS-hPAR2 cells using Phospho-ERK1/2 (Thr202/Tyr204) assay kit (64ERKPEH Cisbio) and the 2 plate manufacturer’s protocol with the following modifications. Cells were seeded in McCoy’s 5A media containing 10% FBS at 15,000 cells per well in 384-well plates and incubated overnight at 37 °C, 5% CO2. Antagonist compounds (30 µM–1 nM) were incubated with the cells for 30 min prior to the addition of agonist SLIGRL-NH2 (10 µM) at EC80 and further incubation for 5 min at 37 °C. The supernatant was removed from the wells and lysis buffer was added to the cells and incubated with shaking at room temperature for 30 min. The cell lysate was transferred into a small-volume 384-well plate containing detection antibodies and incubated for 4 h at room temperature in the dark. Plates were read for HTRF signal on PHERAstar (BMG LabTech). In addition, phosphorylation of ERK1/2 was measured in CHO-hPAR2 using AlphaLISA SureFire Ultra pERK1/2 (Thr202/Tyr204) (Perkin Elmer). Cells were seeded at a density of 2000 cells per well in a 384-well proxiplate and incubated overnight. […] After incubation, cell lysis buffer was added with shaking for 30 min. Antibodies and beads were added and incubated for 4 h at room temperature. AlphaLISA signal was measured using a PHERAstar (BMG LabTech).
as §1

hPAR2 [4] = biological target: T1, hPAR2; assay: β-arrestin-2 recruitment assay, inhibition of SLIGRL-NH2 in U2OS-hPAR2 cells; type: cell-based
Protocol: β‐Arrestin-2 recruitment was measured in U2OS-hPAR2 cells using the DiscoverX assay kit, according to the manufacturer’s instructions. Briefly, cells were seeded in McCoy’s 5A media containing 10% FBS at 4000 cells per well in 384-well plates and incubated overnight at 37 °C, 5% CO2. Antagonist compounds (30 µM–1 nM) were incubated with the cells for 30 min prior to the addition of agonist SLIGRL-NH2 (10 µM) at EC80 and further incubation for 90 min at 37 °C. Working detection solution (12 µl) was then added to each well, incubated at room temperature in the dark for 60 min and the chemiluminescence signal read on the EnVision microplate reader (Perkin Elmer).
as §1

hPAR2 [5] = biological target: T1, hPAR2; assay: IP1 HTRF assay, inhibition of SLIGRL-NH2 in 1321N1-hPAR2 cells; type: cell-based
Protocol: Inhibition of PAR2-induced inositol-1-phosphate (IP1) production was measured in 1321N1-hPAR2 cells using IP-One Gq HTRF assay kit (Cisbio). […] Next, EC80 of SLIGRL-NH2 (70 µM) supplemented with 50 mM LiCl was added and incubated for 60 min at 37 °C. Detection of IP1 production was performed according to the manufacturer’s protocol and HTRF was measured using PHERAstar (BMG LabTech). Data were normalised to [IP1] using a standard curve.
as §1

[6] = against Eu-tagged-2f-LIGRLO(dtpa)-NH2, CHO-hPAR2 cells, mean ± s.e.m., read-out: Competition Binding (hPAR2) pKi (converted)
[7] = SLIGRL-NH2, U2OS-hPAR2, mean ± s.e.m., read-out: pERK1/2 (hPAR2) pIC50 (converted)
[8] = SLIGRL-NH2, U2OS-hPAR2, mean ± s.e.m., read-out: β-arrestin (hPAR2) pIC50 (converted)
[9] = SLIGRL-NH2, 1321N1-hPAR2 cells, mean ± s.e.m., read-out: IP1 (hPAR2) pIC50 (converted)
[10] = earlier manuscript version quoted by reviewer, read-out: Ki

shape of inhibition of trypsin-induced Ca^2+ mobilisation (hPAR2 [1]): biphasic inhibition curves
Ki (hPAR2 [2]; [6]): 79.4 nM
IC50 (hPAR2 [3]; [7]): 794 nM
IC50 (hPAR2 [4]; [8]): 490 nM
IC50 (hPAR2 [5]; [9]): 81.3 nM
Compound: C[C@@H](C1CCCCC1)n1c(-c2cc3c(cc2Br)OCO3)nc2cc(C(=O)Nc3ccncc3)ccc21 [AZ2623]

shape of inhibition of trypsin-induced Ca^2+ mobilisation (hPAR2 [1]): biphasic inhibition curves
remaining activity at 0.03 µM (hPAR2 [1]; log[compound], M -7.52288, individual data points, read-out: trypsin Ca^2+ mobilisation, antagonist response, Fig 1g source data): 71.7%
remaining activity at 0.01 µM (hPAR2 [1]; log[compound], M -8, individual data points, read-out: trypsin Ca^2+ mobilisation, antagonist response, Fig 1g source data): 68%
remaining activity at 0.003 µM (hPAR2 [1]; log[compound], M -8.52288, individual data points, read-out: trypsin Ca^2+ mobilisation, antagonist response, Fig 1g source data): 73%
remaining activity at 0.001 µM (hPAR2 [1]; log[compound], M -9, individual data points, read-out: trypsin Ca^2+ mobilisation, antagonist response, Fig 1g source data): 78.8%
remaining activity at 0.0003 µM (hPAR2 [1]; log[compound], M -9.52288, individual data points, read-out: trypsin Ca^2+ mobilisation, antagonist response, Fig 1g source data): 82.9%
remaining activity at 0.0001 µM (hPAR2 [1]; log[compound], M -10, individual data points, read-out: trypsin Ca^2+ mobilisation, antagonist response, Fig 1g source data): 99.7%
IC50 (hPAR2 [1]; trypsin, read-out: inhibition of trypsin activation of PAR2 signalling, biphasic, pIC50 first phase (converted)): 3.16 nM
IC50 (hPAR2 [1]; trypsin, read-out: inhibition of trypsin activation of PAR2 signalling, biphasic, pIC50 second phase (converted)): 1000 nM
Kb (hPAR2 [2]; determined with Eu-tagged-2f-LIGRLO(dtpa)-NH2, read-out: equilibrium dissociation constant pKA / pKB (converted)): 126 nM
Ki (hPAR2 [2]; [10]): 120 nM
IC50 (hPAR2 [3]; [7]): 363 nM
remaining activity at 0.37 µM (hPAR2 [3]; log[compound], M -6.4318, individual data points, read-out: SLIGRL-NH2 phosphorylation of ERK1/2, antagonist response, Fig 1e source data): 45.7%
IC50 (hPAR2 [4]; [8]): 87.1 nM
IC50 (hPAR2 [5]; [9]): 22.4 nM
remaining activity at 0.1001 µM (hPAR2 [5]; log[compound], M -6.99957, individual data points, read-out: SLIGRL-NH2 IP1 formation, antagonist response, Fig 1d source data): 15.9%
remaining activity at 0.03164 µM (hPAR2 [5]; log[compound], M -7.49976, individual data points, read-out: SLIGRL-NH2 IP1 formation, antagonist response, Fig 1d source data): 43.6%
remaining activity at 0.01001 µM (hPAR2 [5]; log[compound], M -7.99957, individual data points, read-out: SLIGRL-NH2 IP1 formation, antagonist response, Fig 1d source data): 71.9%
remaining activity at 0.003165 µM (hPAR2 [5]; log[compound], M -8.49963, individual data points, read-out: SLIGRL-NH2 IP1 formation, antagonist response, Fig 1d source data): 100%
Compound: C[C@@H](C1CCCCC1)n1c(-c2cc3c(cc2Br)OCO3)nc2cc(C(=O)Nc3ccc(C#N)cc3)ccc21 [AZ3451]

Compound: CCCc1cc(F)ccc1C(O)c1ncc[nH]1 (stereo not shown) [AZ8838]
IC50 (hPAR2 [1]): 3980 nM
shape of inhibition of trypsin-induced Ca^2+ mobilisation (hPAR2 [1]): sigmoidal and monophasic
remaining activity at 1.318 µM (hPAR2 [1]; read-out: trypsin Ca^2+ mobilisation, antagonist response, Fig 1g source data, log[compound], M -5.88008, individual data points): 86.9%
remaining activity at 0.1318 µM (hPAR2 [1]; read-out: trypsin Ca^2+ mobilisation, antagonist response, Fig 1g source data, log[compound], M -6.88008, individual data points): 93.7%
remaining activity at 0.04169 µM (hPAR2 [1]; read-out: trypsin Ca^2+ mobilisation, antagonist response, Fig 1g source data, log[compound], M -7.37997, individual data points): 93.1%
remaining activity at 0.01318 µM (hPAR2 [1]; read-out: trypsin Ca^2+ mobilisation, antagonist response, Fig 1g source data, log[compound], M -7.88008, individual data points): 97.5%
Ki (hPAR2 [2]; [6]): 6310 nM
Ki (hPAR2 [2]; [10]): 3600 nM
IC50 (hPAR2 [3]): 2000 nM
remaining activity at 3.33 µM (hPAR2 [3]; read-out: SLIGRL-NH2 phosphorylation of ERK1/2, antagonist response, Fig 1e source data, log[compound], M -5.47756, individual data points): 40.4%
IC50 (hPAR2 [4]): 794 nM
IC50 (hPAR2 [5]): 1450 nM
remaining activity at 3.163 µM (hPAR2 [5]; read-out: SLIGRL-NH2 IP1 formation, antagonist response, Fig 1d source data, log[compound], M -5.4999, individual data points): 40.7%
remaining activity at 1 µM (hPAR2 [5]; read-out: SLIGRL-NH2 IP1 formation, antagonist response, Fig 1d source data, log[compound], M -6, individual data points): 54.4%
remaining activity at 0.3164 µM (hPAR2 [5]; read-out: SLIGRL-NH2 IP1 formation, antagonist response, Fig 1d source data, log[compound], M -6.49976, individual data points): 79.9%
remaining activity at 0.03164 µM (hPAR2 [5]; read-out: SLIGRL-NH2 IP1 formation, antagonist response, Fig 1d source data, log[compound], M -7.49976, individual data points): 108%

Reference: article PMC7747594, “Protease-activated receptor-2 ligands reveal orthosteric and allosteric mechanisms of receptor inhibition” (Communications Biology, 2020)
